Results from patent US20070298099A1, “Liquid and Semi-Solid Pharmaceutical Formulations for Oral Administration of a Substituted Amide” (priority 2004, published 2007).

Key:
[1] = Solubility of Compound I Polymorph B in various liquid vehicles (suspension equilibrated at least 24 hours, filtered, HPLC); assay type: physicochemical
Method: Solubility determinations were carried out at room temperature unless otherwise specified. Solubility of N-[1S,2S]-3-(4-chlorophenyl)-2-(3-cyanophenyl)-1-methylpropyl]-2-methyl-2-{[5-trifluoromethyl]pyridine-2-yl}oxy}propanamide (Compound I) as anhydrous unsolvated Polymorph B (such as prepared in Preparatory Example 2) was determined by preparing a suspension of anhydrous unsovated Polymorph B of Compound I in the solvent system. After equilibration for at least 24 hours, the suspension was filtered and the supernatant was analyzed by HPLC. Chromatography was performed on either a Vydac C18 300 A 250×4.6 mm 5 um particle size with in-line Phenomenex Security Guard w/ C18 cartridge or on a Polaris C18-Ether columns or on a Polaris C8-Ether columns using 0.1% phosphoric acid in combination with methanol or acetonitrile depending on HPLC conditions. The compound was detected at […] and assayed using standard curves. The results are presented below in Table 1, calculated based on mg/g vehicle.

[2] = Oral bioavailability when dosed as a crystalline solid, dogs; assay type: in vivo; conditions: even when surfactant was included in the formulation
[3] = Aqueous solubility of Compound I; assay type: physicochemical
[4] = Oral bioavailability when dosed as a crystalline solid, monkeys; assay type: in vivo; conditions: even when surfactant was included in the formulation

Solubility of Compound I, mg/g of vehicle ([1]; CAPRYOL PGMC, anhydrous unsolvated Polymorph B, room temperature): 396 mg/g of vehicle
Solubility of Compound I, mg/g of vehicle ([1]; CREMOPHOR-EL, Polymorph B, room temperature): 131 mg/g of vehicle
Solubility of Compound I, mg/g of vehicle ([1]; Corn oil-SPAN 80-CREMOPHOR EL (35:35:30), w/w/w, Polymorph B, room temperature): 69 mg/g of vehicle
Solubility of Compound I, mg/g of vehicle ([1]; Corn oil-SPAN 80-TWEEN 80 (30:30:40), w/w/w, Polymorph B, room temperature): 78 mg/g of vehicle
Solubility of Compound I, mg/g of vehicle ([1]; Corn oil/Oleic acid/TWEEN 80 (5:2:3), w/w/w, Polymorph B, room temperature): 57 mg/g of vehicle
Solubility of Compound I, mg/g of vehicle ([1]; Glycerol, Polymorph B, room temperature): 0.4 mg/g of vehicle
Solubility of Compound I, mg/g of vehicle ([1]; IMWITOR 742-MIGLYOL 812-TWEEN 80, (15:65:20) w/w/w, Polymorph B, room temperature): 140 mg/g of vehicle
Solubility of Compound I, mg/g of vehicle ([1]; IMWITOR 742-MIGLYOL 812-TWEEN 80, (30:50:20) w/w/w, Polymorph B, room temperature): 171 mg/g of vehicle
Solubility of Compound I, mg/g of vehicle ([1]; IMWITOR 742-MIGLYOL 812-TWEEN 80, (40:40:20) w/w/w, Polymorph B, room temperature): 187 mg/g of vehicle
Solubility of Compound I, mg/g of vehicle ([1]; IMWITOR 742-MIGLYOL 812-TWEEN 80,(45:45:10) w/w/w, Polymorph B, room temperature): ≧191 mg/g of vehicle
Solubility of Compound I, mg/g of vehicle ([1]; IMWITOR 742-Oleic Acid-TWEEN 80-MIGLYOL 812 (2:4:2:2), w/w/w/w, Polymorph B, room temperature): 140 mg/g of vehicle
Solubility of Compound I, mg/g of vehicle ([1]; IMWITOR 742-TWEEN 80 (50:50) w/w, Polymorph B, room temperature): 184 mg/g of vehicle
Solubility of Compound I, mg/g of vehicle ([1]; IMWITOR 742-TWEEN 80 (60:40), w/w, Polymorph B, room temperature): 209 mg/g of vehicle
Solubility of Compound I, mg/g of vehicle ([1]; IMWITOR 742-TWEEN 80, (70:30), w/w, Polymorph B, room temperature): 222 mg/g of vehicle
Solubility of Compound I, mg/g of vehicle ([1]; IMWITOR 742-TWEEN 80-Oleic Acid (4:2:4), w/w/w, Polymorph B, room temperature): 159 mg/g of vehicle
Solubility of Compound I, mg/g of vehicle ([1]; IMWITOR 742-TWEEN 80-Oleic Acid (5:3:2), w/w/w, Polymorph B, room temperature): 178 mg/g of vehicle
Solubility of Compound I, mg/g of vehicle ([1]; IMWITOR 742, at 30 C., anhydrous unsolvated Polymorph B): 267 (at 30 C.) mg/g of vehicle
Solubility of Compound I, mg/g of vehicle ([1]; LABRAFIL M1944CS, Polymorph B, room temperature): 84 mg/g of vehicle
Solubility of Compound I, mg/g of vehicle ([1]; LABRASOL, Polymorph B, room temperature): 202 mg/g of vehicle
Solubility of Compound I, mg/g of vehicle ([1]; MIGLYOL 812-Corn oil-SPAN 80-TWEEN 80 (30:20:25:25), w/w/w, Polymorph B, room temperature): 97 mg/g of vehicle
Solubility of Compound I, mg/g of vehicle ([1]; MIGLYOL 812-IMWITOR 742, 1:1 v/v, Polymorph B, room temperature): ≧204 mg/g of vehicle
Solubility of Compound I, mg/g of vehicle ([1]; MIGLYOL 812-IMWITOR 742, 4:1 v/v, Polymorph B, room temperature): 173 mg/g of vehicle
Solubility of Compound I, mg/g of vehicle ([1]; MIGLYOL 812-LABRASOL/TWEEN80/Oleic acid (40:25:25:10), w/w/w/w, Polymorph B, room temperature): 158 mg/g of vehicle
Solubility of Compound I, mg/g of vehicle ([1]; MIGLYOL 812-PECEOL, 1:1 v/v, Polymorph B, room temperature): 118 mg/g of vehicle
Solubility of Compound I, mg/g of vehicle ([1]; MIGLYOL 812-TWEEN 80, 1:1 w/w, Polymorph B, room temperature): 113 mg/g of vehicle
Solubility of Compound I, mg/g of vehicle ([1]; MIGLYOL 812/Oleic acid/CREMOPHOR EL (5:2:3), w/w/w/w, Polymorph B, room temperature): 129 mg/g of vehicle
Solubility of Compound I, mg/g of vehicle ([1]; MIGLYOL 812/Oleic acid/TWEEN 80 (5:2:3), w/w/w/w, Polymorph B, room temperature): 120 mg/g of vehicle
Solubility of Compound I, mg/g of vehicle ([1]; MIGLYOL 812, Polymorph B, room temperature): 94 mg/g of vehicle
Solubility of Compound I, mg/g of vehicle ([1]; Oleic Acid, Polymorph B, room temperature): 20 mg/g of vehicle
Solubility of Compound I, mg/g of vehicle ([1]; Olive oil, Polymorph B, room temperature): 18 mg/g of vehicle
Solubility of Compound I, mg/g of vehicle ([1]; PEG400-TWEEN80 (1:1), w/w, Polymorph B, room temperature): 138 mg/g of vehicle
Solubility of Compound I, mg/g of vehicle ([1]; PEG400, Polymorph B, room temperature): 120 mg/g of vehicle
Solubility of Compound I, mg/g of vehicle ([1]; PG, Polymorph B, room temperature): 28 mg/g of vehicle
Solubility of Compound I, mg/g of vehicle ([1]; SPAN 80, Polymorph B, room temperature): 45 mg/g of vehicle
Solubility of Compound I, mg/g of vehicle ([1]; Soybean Oil, Polymorph B, room temperature): 21 mg/g of vehicle
Solubility of Compound I, mg/g of vehicle ([1]; Soybean oil-SPAN 80-TWEEN 80 (50:25:25), w/w/w, Polymorph B, room temperature): 59 mg/g of vehicle
Solubility of Compound I, mg/g of vehicle ([1]; TWEEN 80-LABRASOL-Oleic Acid (25:25:50), w/w/w, Polymorph B, room temperature): 120 mg/g of vehicle
Solubility of Compound I, mg/g of vehicle ([1]; TWEEN 80, Polymorph B, room temperature): 104 mg/g of vehicle
oral bioavailability [2]: very poorly orally bioavailable
solubility ([3]; aqueous medium (not further specified)): < 0.4 µg/mL
solubility ([3]; aqueous medium, typically): < 0.4 µg/mL
oral bioavailability [4]: very poorly orally bioavailable
SMILES: C[C@H](NC(=O)C(C)(C)Oc1ccc(C(F)(F)F)cn1)[C@@H](Cc1ccc(Cl)cc1)c1cccc(C#N)c1 [Compound I, N-[1S,2S]-3-[(4-chlorophenyl)-2-(3-cyanophenyl)-1-methylpropyl]-2-methyl-2-{[(5-trifluoromethyl)pyridine-2-yl]oxy}propanamide]
